# From US20050075276A1, “Use of inhibitors of glycogen synthase-3 to augment CD28 dependent -T-cell responses” (priority 2003, published 2005)
# Assays:
# [1] = test system: K562 cells; assay: Cytolytic T-cell (CTL) killing of K562 cells, CytoTox96 assay; assay type: cell-based, human; conditions: for potentiation of cytolytic T-cell response: 6 days co-culture, FIG. 5A
# Description: Cytotoxic activity was also measured and combined with a control where cultures were treated with anti-CD28 mAbs (5 μg/ml). After 6 days, cytolytic T-cells were harvested, washed twice and co-cultured with fresh K562 cells. Cytotoxcity was measured by the CytoTox96 non-radioative cytotoxicity assay from Promega (Southampton, UK).
# (§1) Peripheral blood lymphocytes (PBLs) were isolated by Ficoll gradient centrifugation from Buffy coats, or from blood samples (60-120 cc) taken from healthy volunteers. Leukemic cells K562 were first treated with 50 ug/ml Mitomycin C (Sigma) for 1 hour in 5% CO2 incubator at 37° C. and then washed at least three times with RPMI 1640 to remove the presence of drug. Washed K562 cells and PBLs (1:5 ratio) were then resuspended in RPMI 1640 with 5% fetal calf serum, 1% penicillin-streptomycin and 1% L-glutamine. PBLs and leukemic cells were transferred into 24 well plate. […] Occassionally, PBLs would be preincubated with inhibitor for periods of time (i.e. 5-24 hours) prior to incubation with K562 cells. In either case, cell cultures were then allowed to incubate for 8 days in 5% CO2 incubator at 37° C. prior to an assessment of cytotoxic function. Over this period, the K562 cells die due to the treatment with mitomycin c.
# For an assessment of cytotoxity, effector cells (PBLs) and fresh target cell K562 were added into 96 well plates at various ratios (50:1; 25:1 etc.). Culture medium, effector cells and target cells were added into separate wells as background controls. Cytotoxicity was assessed using a Cytotoxicity Assay kit (Promega) as outlined by the manufacturer.
# Cytotoxicity was measured by CytoTox96® assay.
# [2] = test system: Peripheral T-cells; assay: T-cell proliferation in response to tumor cell line K562 (3H-thymidine incorporation); assay type: cell-based, human; conditions: 48 hours, mitomycin C treated K562; FIG. 4
# Description: as §1
Compound,"effect on cytolytic T-cell (CTL) killing of K562 cells ([1]; FIG. 6, inhibitor added at 1 mM and 5 mM)",increase in level of proliferative response to K562 [2],"potentiation of cytolytic T-cell response ([1]; 10 um, 50:1 effector target ratio)","potentiation of cytolytic T-cell response ([1]; 50 um, 25:1 ratio)"
[Cl-].[Li+] [Lithium Chloride],enhances,–,–,–
O=C1NC(=O)C(c2ccccc2[N+](=O)[O-])=C1Nc1ccc(O)c(Cl)c1 [SB415286],–,two-three fold,5-6 fold,5-6 fold
